Here are results for two molecules from patent US10933002B2, “Preservation booster” (DSM IP ASSETS B.V., priority 2017, dated 2021).

The structures appear in SMILES notation.

The subject of the test is Escherichia coli. Kind of test: antimicrobial efficacy in analogy to the regulatory challenge test method (NF EN ISO11930). Format: cell-based. The conditions noted are these: 0.2 wt.-% test solution in physiological serum; 24 h after contamination; 22° C.; initial contamination 580000 cfu/ml. The procedure:
The term “antimicrobial activity” (or “antimicrobial effect”) as used herein means a capability of killing and/or inhibiting the growth of pathogenic or unwanted bacteria, such as in particular Escherichia coli (Escherichia coli ATCC 8739). The applied measuring method is NF EN IS011930. The antimicrobial efficacy is assessed in analogy to the regulatory challenge test method (NF EN ISO11930). Thus, solutions of the respective active(s) in ethanol are prepared and further dissolved in physiological serum with 0.85 wt.-% NaCl in the concentrations as outlined in table 1 under sterile conditions. Samples containing phytantriol were solubilized in physiological serum supplemented with 10 wt.-% ethanol, samples containing erythrulose only were solubilized in physiological serum supplemented with 1 wt.-% ethanol. The solutions of the active(s) were deposed in 96-deep well plates (1.6 ml/well). The wells are contaminated with the Escherichia coli at 1.5*10^5 to 1*10^6 cfu/ml to obtain the initial contamination as outlined in table 1. After the contamination, each well was thoroughly mixed to ensure a homogeneous distribution of E. coli. Then each plate was incubated at 22° C. for 24 h. The counting of the (remaining) population is carried out 24 h after contamination.

In the case of `O=C(CO)[C@H](O)CO` (racemic) [erythrulose], the “Escherichia coli colony count” value is given as 33700 cfu/ml and the Log reduction is −1.236.
The like results for `CC(C)CCCC(C)CCCC(C)CCCC(C)(O)C(O)CO` (stereo not shown) [phytantriol, 3,7,11,15-tetramethyl-1,2,3-hexadecanetriol] were, in that order, 1000 cfu/ml and −2.763.
